Counter-ions that a name gives are not always drawn.
Target: T1, Human Polθ polymerase domain (aa1820-2590) (Homo sapiens, UniProt O75417)
T1 construct: Human Polθ polymerase domain (aa1820-2590) was expressed in E. Coli; made in house; host or cells: E. coli
T1 sequence (O75417 1820-2590): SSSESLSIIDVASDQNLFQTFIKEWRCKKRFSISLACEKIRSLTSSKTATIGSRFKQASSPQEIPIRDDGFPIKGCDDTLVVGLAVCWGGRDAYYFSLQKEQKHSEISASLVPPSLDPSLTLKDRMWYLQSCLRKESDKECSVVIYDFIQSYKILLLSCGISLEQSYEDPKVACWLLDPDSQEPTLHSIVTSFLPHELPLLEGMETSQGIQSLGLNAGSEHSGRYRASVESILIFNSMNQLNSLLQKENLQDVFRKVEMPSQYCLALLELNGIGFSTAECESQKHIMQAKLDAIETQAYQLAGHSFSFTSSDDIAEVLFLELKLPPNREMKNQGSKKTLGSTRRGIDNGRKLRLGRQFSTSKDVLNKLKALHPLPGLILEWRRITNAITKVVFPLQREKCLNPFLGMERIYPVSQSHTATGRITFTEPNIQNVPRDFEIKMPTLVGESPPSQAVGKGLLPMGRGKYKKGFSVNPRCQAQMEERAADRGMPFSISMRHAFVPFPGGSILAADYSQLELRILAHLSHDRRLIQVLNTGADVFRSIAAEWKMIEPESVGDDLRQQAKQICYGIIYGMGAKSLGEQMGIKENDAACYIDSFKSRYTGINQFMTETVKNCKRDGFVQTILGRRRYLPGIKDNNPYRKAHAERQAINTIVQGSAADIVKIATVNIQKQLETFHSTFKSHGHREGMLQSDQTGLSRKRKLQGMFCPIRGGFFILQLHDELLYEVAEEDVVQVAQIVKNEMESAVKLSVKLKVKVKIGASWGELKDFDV
Assay: Polθ Polymerase Domain WT KI Assay (PicoGreen)
Assay type: biochemical
Conditions: 100 nM DNA substrate, 0.156 nM Polθ, initial rates vs inhibitor concentration
Outline: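 E. coli-expressed human Polθ polymerase domain (aa1820-2590) on annealed DNA II Short/Long primer-template (1.2:1), in 25 mM Tris pH 7.5, NaCl, 5% glycerol, 0.01% Triton X-100, 0.1 mg/ml BSA, 1 mM DTT, 1% DMSO. EDTA-quenched timepoints to 180 min, PicoGreen fluorescence. Initial rates vs inhibitor concentration fitted four-parameter for KI.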

Cc1cc(C(F)(F)F)cc(N2C(=O)C[C@@H]3CN(CCN4CCN(C)C[C@H]4C)c4c(C)cccc4N(C)C(=O)[C@H]32)n1 [Example 48, (3aR,11aS)-5-(2-((R)-2,4-Dimethylpiperazin-1-yl)ethyl)-6,10-dimethyl-1-(6-methyl-4-(trifluoromethyl)pyridin-2-yl)-1,3a,4,5,10,11a-hexahydro-2H-benzo[b]pyrrolo[2,3-f][1,4]diazocine-2,11(3H)-dione dihydrochloride]
Ki: 0.307 nM

Cc1cc(C(F)(F)F)cc(N2C(=O)C[C@@H]3CN(CCN4CCN(C)C[C@H]4CO)c4c(C)cccc4N(C)C(=O)[C@H]32)n1 [Example 64, (3aR,11aS)-5-(2-((S)-2-(Hydroxymethyl)-4-methylpiperazin-1-yl)ethyl)-6,10-dimethyl-1-(6-methyl-4-(trifluoromethyl)pyridin-2-yl)-1,3a,4,5,10,11a-hexahydro-2H-benzo[b]pyrrolo[2,3-f][1,4]diazocine-2,11(3H)-dione dihydrochloride]
Ki: 0.816 nM

Cc1cc(C(F)(F)F)cc(N2C(=O)C[C@@H]3CN(CCN4CC[C@@H](O)C4)c4c(C)cccc4N(C)C(=O)[C@H]32)n1 [Example 56, (3aR,11aS)-5-(2-((R)-3-Hydroxypyrrolidin-1-yl)ethyl)-6,10-dimethyl-1-(6-methyl-4-(trifluoromethyl)pyridin-2-yl)-1,3a,4,5,10,11a-hexahydro-2H-benzo[b]pyrrolo[2,3-f][1,4]diazocine-2,11(3H)-dione]
Ki: 3.12 nM

Cc1cc(C(F)(F)F)cc(N2C(=O)C[C@@H]3CN(C4CC(OCc5ccccc5)C4)c4c(F)cccc4N(C)C(=O)[C@H]32)n1 (single isomer, unassigned) [Example 92b]
Ki: 14.7 nM

Cc1cc(C(F)(F)F)cc(N2C(=O)C[C@@H]3CN(C[C@@H]4CCCN4C)c4c(Cl)cccc4N(C)C(=O)[C@H]32)n1 (racemic) [Example 118b, (3aR,11aS)-6-Chloro-10-methyl-1-(6-methyl-4-(trifluoromethyl)pyridin-2-yl)-5-(((S/R)-1-methylpyrrolidin-2-yl)methyl)-1,3a,4,5,10,11a-hexahydro-2H-benzo[b]pyrrolo[2,3-f][1,4]diazocine-2,11(3H)-dione]
Ki: 6.04 nM

Cc1cc(C(F)(F)F)cc(N2C(=O)C[C@@H]3CN(Cc4cn5c(n4)[C@H](C)N(C)CC5)c4c(Cl)cccc4N(C)C(=O)[C@H]32)n1 (racemic) [Example 96b, (3aR,11aS)-6-Chloro-5-(((S/R)-7,8-dimethyl-5,6,7,8-tetrahydroimidazo[1,2-a]pyrazin-2-yl)methyl)-10-methyl-1-(6-methyl-4-(trifluoromethyl)pyridin-2-yl)-1,3a,4,5,10,11a-hexahydro-2H-benzo[b]pyrrolo[2,3-f][1,4]diazocine-2,11(3H)-dione]
Ki: 1.66 nM

Cc1cc(C(F)(F)F)cc(N2C(=O)C[C@@H]3CN(c4ccc5ncn(C)c5c4)c4c(F)cccc4N(C)C(=O)[C@H]32)n1 [Example 144, (3aR,11aS)-6-Fluoro-10-methyl-5-(1-methyl-1H-benzo[d]imidazol-6-yl)-1-(6-methyl-4-(trifluoromethyl)pyridin-2-yl)-1,3a,4,5,10,11a-hexahydro-2H-benzo[b]pyrrolo[2,3-f][1,4]diazocine-2,11(3H)-dione]
Ki: 28.8 nM

Cc1cc(C(F)(F)F)cc(N2C(=O)C[C@@H]3CN(CCN4CC[C@@H](O)C4)c4c(Cl)cccc4N(C)C(=O)[C@H]32)n1 [Example 31, (3aR,11aS)-6-Chloro-5-(2-((R)-3-hydroxypyrrolidin-1-yl)ethyl)-10-methyl-1-(6-methyl-4-(trifluoromethyl)pyridin-2-yl)-1,3a,4,5,10,11a-hexahydro-2H-benzo[b]pyrrolo[2,3-f][1,4]diazocine-2,11(3H)-dione]
Ki: 2.62 nM

Cc1cc(C(F)(F)F)cc(N2C(=O)C[C@@H]3CN(CCN4CCC(F)(F)CC4)c4c(Cl)cccc4N(C)C(=O)[C@H]32)n1 [Example 22, (3aR,11aS)-6-Chloro-5-(2-(4,4-difluoropiperidin-1-yl)ethyl)-10-methyl-1-(6-methyl-4-(trifluoromethyl)pyridin-2-yl)-1,3a,4,5,10,11a-hexahydro-2H-benzo[b]pyrrolo[2,3-f][1,4]diazocine-2,11(3H)-dione]
Ki: 1.79 nM

Cc1cc(C(F)(F)F)cc(N2C(=O)C[C@@H]3CN(CCN4CCN(C)CC4)c4c(Cl)cc(F)cc4N(C)C(=O)[C@H]32)n1 [Example 8, (3aR,11aS)-6-Chloro-8-fluoro-10-methyl-1-(6-methyl-4-(trifluoromethyl)pyridin-2-yl)-5-(2-(4-methylpiperazin-1-yl)ethyl)-1,3a,4,5,10,11a-hexahydro-2H-benzo[b]pyrrolo[2,3-f][1,4]diazocine-2,11(3H)-dione]
Ki: 4.36 nM

COc1cc(N2C[C@H]3CC(=O)N(c4cc(C(F)(F)F)cc(C)n4)[C@@H]3C(=O)N(C)c3cccc(F)c32)ccn1 [Example 142, (3aR,11aS)-6-Fluoro-5-(2-methoxypyridin-4-yl)-10-methyl-1-(6-methyl-4-(trifluoromethyl)pyridin-2-yl)-1,3a,4,5,10,11a-hexahydro-2H-benzo[b]pyrrolo[2,3-f][1,4]diazocine-2,11(3H)-dione]
Ki: 461 nM

Cc1cc(C(F)(F)F)cc(N2C(=O)C[C@@H]3CN(CC4CN(C)CCO4)c4c(Cl)cccc4N(C)C(=O)[C@H]32)n1 (single isomer, unassigned) [Example 120a, hydrochloride]
Ki: 1.39 nM

Cc1cc(C(F)(F)F)cc(N2C(=O)C[C@@H]3CN(CCN4CC[C@H](C(=O)N(C)C)C4)c4c(Cl)cccc4N(C)C(=O)[C@H]32)n1 [Example 41, (S)-1-(2-((3aR,11aS)-6-Chloro-10-methyl-1-(6-methyl-4-(trifluoromethyl)pyridin-2-yl)-2,11-dioxo-1,2,3,3a,4,10,11,11a-octahydro-5H-benzo[b]pyrrolo[2,3-f][1,4]diazocin-5-yl)ethyl)-N,N-dimethylpyrrolidine-3-carboxamide]
Ki: 2.9 nM

Cc1cc(C(F)(F)F)cc(N2C(=O)C[C@@H]3CN(c4ccccn4)c4c(Cl)cccc4N(C)C(=O)[C@H]32)n1 [Example 145, (3aR,11aS)-6-Chloro-10-methyl-1-(6-methyl-4-(trifluoromethyl)pyridin-2-yl)-5-(pyridin-2-yl)-1,3a,4,5,10,11a-hexahydro-2H-benzo[b]pyrrolo[2,3-f][1,4]diazocine-2,11(3H)-dione]
Ki: 30.5 nM

Cc1cc(C(F)(F)F)cc(N2C(=O)C[C@@H]3CN(CCN4C[C@@H]5C[C@H]4CN5)c4c(C)cccc4N(C)C(=O)[C@H]32)n1 [Example 59, (3aR,11aS)-5-(2-((1S,4S)-2,5-Diazabicyclo[2.2.1]heptan-2-yl)ethyl)-6,10-dimethyl-1-(6-methyl-4-(trifluoromethyl)pyridin-2-yl)-1,3a,4,5,10,11a-hexahydro-2H-benzo[b]pyrrolo[2,3-f][1,4]diazocine-2,11(3H)-dione dihydrochloride]
Ki: 1.13 nM

Cc1cc(C(F)(F)F)cc(N2C(=O)C[C@@H]3CN(CC[C@H]4CCNC4)c4c(Cl)cccc4N(C)C(=O)[C@H]32)n1 [Example 111, (3aR,11aS)-6-Chloro-10-methyl-1-(6-methyl-4-(trifluoromethyl)pyridin-2-yl)-5-(2-((R)-pyrrolidin-3-yl)ethyl)-1,3a,4,5,10,11a-hexahydro-2H-benzo[b]pyrrolo[2,3-f][1,4]diazocine-2,11(3H)-dione hydrochloride]
Ki: 0.619 nM

Cc1cc(C(F)(F)F)cc(N2C(=O)C[C@@H]3CN(Cc4cn5c(n4)C(C)N(C)CC5)c4c(Cl)cccc4N(C)C(=O)[C@H]32)n1 (single isomer, unassigned) [Example 96a]
Ki: 1.45 nM

Cc1cc(C(F)(F)F)cc(N2C(=O)C[C@@H]3CN(CC4CCCCN4)c4c(Cl)cccc4N(C)C(=O)[C@H]32)n1 (single isomer, unassigned) [Example 105a]
Ki: 8.57 nM

Cc1cc(C(F)(F)F)cc(N2C(=O)C[C@@H]3CN(C[C@H]4CCN(C)[C@@H](C)C4)c4c(Cl)cccc4N(C)C(=O)[C@H]32)n1 (single isomer, unassigned) [Example 126a]
Ki: 1.56 nM

Cc1cc(C(F)(F)F)cc(N2C(=O)C[C@@H]3CN(CCN4C[C@H]5C[C@@H]4CN5C)c4c(C)cccc4N(C)C(=O)[C@H]32)n1 [Example 61, (3aR,11aS)-6,10-Dimethyl-5-(2-((1R,4R)-5-methyl-2,5-diazabicyclo[2.2.1]heptan-2-yl)ethyl)-1-(6-methyl-4-(trifluoromethyl)pyridin-2-yl)-1,3a,4,5,10,11a-hexahydro-2H-benzo[b]pyrrolo[2,3-f][1,4]diazocine-2,11(3H)-dione dihydrochloride]
Ki: 0.759 nM

Source: US20260124214A1, “HETEROCYCLIC COMPOUNDS FOR USE IN THE TREATMENT OF CANCER” (ARTIOS PHARMA LIMITED, priority 2021, published 2026)
